Measurements: patent US12343324B2, “Dihydromyricetin hot melt extrusion formulations and methods for forming them” (The Trustees of Princeton University, priority 2018, dated 2025)
In brackets after ≈: the same amount, converted by molar mass.

Key:
[1] = Equilibrium solubility in fed state simulated intestinal fluid (FeSSIF); assay type: physicochemical; details: thermodynamic from solid, pH 5.0, 37° C., read-out: equilibrium solubility of crystalline DHM in FeSSIF
[2] = reference [31]; cited from earlier work
[3] = Equilibrium solubility in fasted state simulated intestinal fluid (FaSSIF); assay type: physicochemical; details: thermodynamic from solid, pH 6.5, 37° C., read-out: equilibrium solubility of crystalline DHM in FaSSIF

solubility thermodynamic [1]: ~140 µg/mL (≈ 437 µM) | solubility thermodynamic [3]: ~50 µg/mL (≈ 156 µM)
SMILES: O=C1c2c(O)cc(O)cc2O[C@H](c2cc(O)c(O)c(O)c2)[C@H]1O [DHM, dihydromyricetin]
oral bioavailability [2]: less than 5%
